Consider 2 compounds from ChEMBL document CHEMBL3580584, “Antibacterial Balsacones J-M, Hydroxycinnamoylated Dihydrochalcones from Populus balsamifera Buds” (J Nat Prod, 2015).

This experiment concerns Staphylococcus aureus. Description: Antibacterial activity against Staphylococcus aureus ATCC 25923 assessed as growth inhibition after 24 hrs by microdilution method. It counts as functional, organism-based.

On to `O=C(N[C@H](CO)[C@H](O)c1ccc([N+](=O)[O-])cc1)C(Cl)Cl` [CHLORAMPHENICOL], for which the IC50 (Staphylococcus aureus, ATCC 25923, 24 h) was determined as 430 nM.

GENTAMICIN: the IC50 is 10 nM.
